Source: patent publication US12433870B2, “Supramolecular photoprotection of a photosensitizer” (Northwestern University, priority 2019, dated 2025)

Experiments:
A2780 cells [1] = experiment: In vitro PDT efficacy, MTT assay after visible light irradiation; format: cell-based, human; conditions: 10 μM PBS solution, light dose 0.078 J cm^−2
Method: A2780 cells (human ovarian cancer cell line) and MCF-7 cells (human breast adenocarcinoma cell line) obtained from Sigma-Aldrich and American Type Culture Collection (ATCC, Rockville, MD, USA), respectively were utilized for cell culture experiments. These cells were cultured in Dulbecco's Modified Eagle's Medium (DMEM) supplemented with 10% fetal bovine serum (FBS), penicillin (100 IU/mL) and streptomycin (100 μg/mL) at 37° C. in the presence of air (95%) and CO2 (5%).
A2780 or MCF-7 cells (2×10^5 cells/mL, 100 μL) were seeded in each well of a black 96-well plate. Stock solution of ExBox^4+⊃DPP in PBS (1 mM, 10 μL) was added to each well to achieve working concentrations and incubated for 12 h. After incubation, wells were washed with PBS, added with 100 μL of DMEM and immediately irradiated with visible light using Max-303 Xenon Light Source (385-740 nm, Asahi Spectra) at different light intensities (5-50 mW) for 1 to 15 min. Following irradiation, cells were incubated overnight and then added with MTT (5 mg/mL in PBS, 10 μL). After 4 h incubation with MTT, media from each well was pipetted out, formazan crystals deposited on the plate were dissolved in 200 μL of Me2SO, and the absorbance of each well was measured using a microplate reader at 560 nm. All the samples were analyzed in quadruplicates.
The percentage cell viability was calculated using the following formula: % cell viability=(OD of treated sample/OD of untreated sample)*100.

A2780 cells [2] = experiment: Live cell confocal microscopy, cellular uptake and co-localization; format: cell-based, human; conditions: lysosomal uptake, control experiment
Method: A2780 cells (1×10^5 cells/mL, 300 μL) were plated in each well of an 8-well μ-slide (ibidi cell focus) and cultured overnight. PBS solution of ExBox^4+⊃DPP was added to each well and incubated for predetermined time points. For cellular co-localization studies, cells were washed with phenol free DMEM and stained with LysoTracker green (lysosome stain, 1:1000 dilution) or MitoSpy™ Green FM (mitochondria stain, 1:2000 dilution) or NucBlue™ Live ReadyProbes™ Reagent (nuclei stain, 1 drop). For the live-dead assay, cells were incubated with PBS solution of ExBox^4+⊃DPP irradiated for 10 min at […] light intensity, incubated overnight, and stained with Calcein AM (2 μM) and Ethidium homodimer-1 (4 μM). Plated cells were imaged within a humidified chamber using a 63× oil-immersion objective on a SP5 Leica Confocal Microscope using HyD detectors and lasers.

[3] = Detection of singlet oxygen (ADPA chemical method, methylene blue reference); format: physicochemical; conditions: 20 μM, 630 nm, 50 mW, 20 min
Method: Singlet oxygen (^1O2) quantum-yield measurements were conducted by a chemical method. The disodium salt of 9.10-anthracenedipropionic acid (ADPA) was used as singlet oxygen detection reagent with methylene blue used as a reference (Φt=0.53). In this experiment, ADPA (0.1 μmol) was added to the H2O solution of ExBox^4+⊃DPP (20 μM) with a laser irradiation (630 nm, 50 mW) for 20 min, followed by quantification of ^1O2 by the absorbance intensity change (UV-3600 Shimadzu spectrophotometer) at 380 nm of ADPA. The calculation of ^1O2 quantum yield is based on the equality ΦΔ=(ΔAs/[…])Φr. ΔAs is the absorption change of detected photosensitizer, ΔAr is the absorption change of referenced photosensitizer and Φ^r is the quantum yield of singlet oxygen of referenced photosensitizer (methylene blue).
(§1) ADPA (0.1 μmol) was added to the H2O solution of DPPH2^+ (20 μM) with a laser irradiation (630 nm, 50 mW) for 20 min, followed by quantification of the ^1O2 by the absorbance intensity change (UV-3600 Shimadzu spectrophotometer) at 380 nm of ADPA. The calculation of the ^1O2 quantum yield is based on the equality ΦΔ=(ΔAs/ΔAr)Φr where ΔAs is the absorption change of detected photosensitizer, ΔAr is the absorption change of referenced photosensitizer and Φr is the quantum yield of singlet oxygen of referenced photosensitizer (methylene blue). Measured ^1O2 quantum yield of DPPH2^2+ is 0.38 in H2O.
as §1, with “acetone” for “H2O”, “DPP” for “DPPH2^+”, “DPP” for “DPPH2^2+”, “0.43” for “0.38”, “acetone.” for “H2O.”

[4] = reference photosensitizer; cited from earlier work
[5] = Solubility in water / PBS buffer; format: physicochemical

C1=Cc2nc1cc1ccc([nH]1)c(-c1ccccc1)c1nc(cc3ccc([nH]3)c2-c2ccccc2)C=C1 [DPPH2^2+, reference compound]
cells killed (PDT control experiment) (A2780 cells [1]): ~90% | cellular uptake compared with the complex (fluorescence intensity inside cells) (A2780 cells [2]): less efficient | ^1O2 quantum yield ([3]; in H2O): 0.38

CN(C)c1ccc2nc3ccc(=[N+](C)C)cc-3sc2c1 [methylene blue]
^1O2 quantum yield of reference [4]: 0.53

C1=Cc2nc1cc1ccc([nH]1)c(-c1ccccc1)c1nc(cc3ccc([nH]3)c2-c2ccccc2)C=C1 [DPP, 5,15-diphenylporphyrin]
solubility in H2O ([5]; H2O): insoluble | solubility in water and PBS buffer ([5]; water and PBS buffer): insoluble | ^1O2 quantum yield ([3]; in acetone): 0.43
